From patent US12628750B2, “Plant cell chromosome doubling by application of electromagnetic field” (SYNGENTA CROP PROTECTION AG, priority 2020, dated 2026)
Where “and” joins values, the source holds several entries; their conditions need not be identical. Equal entries are not always repeated.

Legend:
BMS cell culture = assay: Nuclear ploidy analysis (Sysmex Ploidy Analyzer) of BMS cell suspension culture after treatment; assay type: cell-based
Procedure: A BMS cell culture was obtained and maintained in liquid MS media supplemented with 2 mg/L of 2,4-D as described in Green and Phillips (1975). Five to seven days after subculture, the liquid cell culture was placed in a […] gap electroporation cuvette and exposed to EMF application at a frequency of 275 kHz, intensity of 25 V/cm, for a duration of 18 hours with constant shaking at room temperature to disrupt spindle fiber formation and interfere with mitosis. For each treatment, three other tests were also setup from the same culture: (i) 1.25 mM colchicine-treatment, (ii) no treatment culture in an electroporation cuvette, and (iii) no treatment culture that remained in the incubator flask. This duration allows for DNA replication without cell division, thereby causing chromosome doubling.
To measure doubling immediately after treatment, cell culture was prepared for nuclear ploidy analysis first by protoplasting cells for 3 hours in plant protoplast digest/wash buffer (Sigma-Aldrich® D9692) containing 1% cellulase R-10 (GoldBio™ C8001.0001) and 0.1% macerozyme R-10 (GoldBio™ M8002.0001) at 25 C with shaking at 120 rpm. After protoplasting, cells were pelleted by centrifugation at 14000 rpm for 1 min in a tabletop microcentrifuge and protoplast buffer was removed with a pipette. The cells were then resuspended by pipetting in 400 μl of nuclei extraction buffer (Sysmex®, CyStain® UV Precise P Nuclei Extraction Buffer, 05-5002) and mixed with 800 μl of nuclei staining solution (Sysmex®, CyStain® UV Precise P Staining Buffer, 05-5002). The stained nuclei were then passed through a 30 μm filter (Sysmex®, Non-sterile CellTrics® Filter, Green, 04-0042-2316) into the collection cuvette, and the filter rinsed with an additional 800 μl of nuclei staining solution. The cuvette was then loaded into a Sysmex® Ploidy Analyzer (CyFlow® Ploidy Analyzer, equipped with UV LED 365 nm laser) and data obtained for the entirety of the sample. Untreated BMS cell culture typically has 2-3 ploidy peaks, consistent with the majority of cells existing in a stable ploidy state (peak 1), and a minority of cells being in the process of mitosis and containing double the standard ploidy state (peak 2). […] The increase in the proportion of cells represented in the higher level peaks (3 and 4) was associated with a decrease in cells in the lower level peaks (1 and 2), providing direct evidence that field treatment doubled the genomes of cells moving them from peaks 1 and 2 into the category of peaks 3 and 4 (Table 4). To determine whether this change in the relative proportions of cell culture ploidy levels was statistically significant, eight experimental replicates were averaged and the values compared with pairwise T-tests (Table 5 and Table 6).

[1] = tested on: transgenic tobacco (Nicotiana tabacum) BY-2 cell line; assay: Phragmoplast count by confocal microscopy in synchronized GFP-tubulin BY-2 cells; assay type: cell-based; details: 1.25 mM colchicine; n=3; * p≤0.05 vs No EMF
Source text: (§1) The transgenic tobacco (Nicotiana tabacum) BY-2 cell line was obtained from RIKEN BioResource Research Center (epd.brd.riken.jp/en/). This cell line expresses green fluorescent protein (“GFP”) fused to tobacco α-tubulin. See F. Kumagai, et al., Fate of nascent microtubules organized at the M/G1 interface, as visualized by synchronized tobacco BY02 cells stably expressing GFP-tubulin: Time-sequence observations of the reorganization of cortical microtubules in living plant cells, PLANT & CELL PHYS. 42:723-732 (2001). When viewed with a fluorescence microscope, the microtubules fluoresce and enable visualization of microtubule polymerization, including, e.g., spindle fiber and phragmoplast formation during cell division. The BY-GT16 cells were grown in modified LS media supplemented with 0.2 mg/L of 2,4-D. The cells were maintained in the dark at 27° C. on a rotary shaker at 130 rpm, with sub-culturing at 7-day intervals.
To aid visualization and increase the likelihood of observing a plurality of cells undergoing mitosis after S-phase, the BY-GT16 cells were synchronized. […]
After washing the aphidicolin from the cells, the cells were permitted to restart normal cellular processes for six hours (i.e., the cells were “released”). […] The oscilloscope monitored the sinusoidal variation of the EMF applied to the cells in the cuvette as a function of time. […]

[2] = tested on: haploid, diploid and interspecific hybrid embryos and seedlings; details: cited from earlier work
[3] = tested on: transgenic tobacco (Nicotiana tabacum) BY-2 cell line; assay: Cell viability by trypan blue staining in synchronized BY-2 cells; assay type: cell-based
Source text: as §1
To aid visualization and increase the likelihood of observing a plurality of cells undergoing mitosis after S-phase, the BY-GT16 cells were synchronized. To do so, […] of 7-day old suspension culture was transferred into 14 mL of BY-2 media (recipes below in Example 4). To the new suspension, 14 μL aphidicolin (5 mg/mL) was added, and the suspension was incubated in the dark for 24 hours at 25° C. on a rotary shaker at 130 rpm. After incubation, the aphidicolin was removed by washing ten times with 16 mL of sterile BY-2 medium. At the end of the last wash, the cells were resuspended in 16 mL of fresh BY-2 medium and returned the washed suspension to the incubator. BY-2 cells reach maximum mitotic index after approximately eight hours. Generally, peak numbers of cells with phragmoplasts were observed approximately eleven hours after washing. Thus, the plurality of cells was reasonably synchronized.
After washing the aphidicolin from the cells, the cells were permitted to restart normal cellular processes for six hours (i.e., the cells were “released”). Next, the population of synchronized cells were prepared for placement in an EMF apparatus (FIG. 1). At that point, 775 μL of cell culture was placed into a 4 mm electroporation cuvette, which was held in place in the cavity of the apparatus using a plastic frame. The plastic frame was designed to fit inside a cavity of the apparatus and was created by 3D-printing. The frame was designed to be placed inside the cavity such that the electrodes (210 and 220) from the Amplifier (200) are able to stably contact the rigid surfaces of the metal plates (Terminals 310 and 320) defining the Cavity (300), which in this instance was configured to hold the cuvette (FIG. 1). The Function Generator (100) was connected to the amplifier and was used to control the frequency (kHz) and field intensity (effective V/cm in the cuvette) of the applied EMF. An optional Oscilloscope (400) was also attached to the positive electrode (210) at the point of contact with the metal plate (310) of the Cavity (FIG. 2). The oscilloscope monitored the sinusoidal variation of the EMF applied to the cells in the cuvette as a function of time.
For the time period between Hours 7 and 11 after mitotic release of the cells, the EMF was applied to the cells in the cuvette (for a total duration of four hours). After application, the Function Generator (100) was turned off and the cells were removed for viability staining and phragmoplast observation. The remaining cells were fixed in paraformaldehyde for later observation.
To determine at what frequency or range of frequencies the BY-2 mitotic structures would be susceptible to the effects of the EMF, frequency tests were conducted in pairs with controls. The controls included a “No Treatment” control where no EMF was applied over the course of several sessions (see “Date of Experiment” column). Since EMF is generated via application of an AC voltage, in some tests, the controls included the application of a corresponding DC voltage. […]

[4] = 1.25 mM colchicine, 18 hours, single replicates
[5] = 1.25 mM colchicine, trypan blue

For `COc1cc2c(c(OC)c1OC)-c1ccc(OC)c(=O)cc1[C@@H](NC(C)=O)CC2` [Colchicine, colchicine], the “Proportion of Cells in Each Ploidy Peak (%): Peak 1” value (BMS cell culture; [4]) was 38.88% and 11.65% and 11.29% and 27.74% and 26.54% and 19.87% and 35.15% and 33.87%, the “Proportion of Cells in Each Ploidy Peak (%): Peak 2” value (BMS cell culture; [4]) was 57.77% and 59.12% and 74.64% and 57.21% and 57.50% and 58.10% and 54.88% and 53.99% and the “Proportion of Cells in Each Ploidy Peak (%): Peak 3” value (BMS cell culture; [4]) was 3.35% and 26.77% and 13.43% and 13.56% and 15.34% and 20.30% and 8.73% and 11.35%. The “Proportion of Cells in Each Ploidy Peak (%): Peak 4” value (BMS cell culture; [4]) was 0.00% and 2.46% and 0.64% and 1.49% and 0.62% and 1.72% and 1.23% and 0.79%, the “Avg Peak1%” value (BMS cell culture; average of 8 replicates) was 25.62% and the “Avg Peak2%” value (BMS cell culture; average of 8 replicates) was 59.15%. For the same compound, the “Avg Peak3%” value (BMS cell culture; average of 8 replicates) was 14.10%, the “Avg Peak4%” value (BMS cell culture; average of 8 replicates) was 1.12% and the “Cells of higher genome content compared to untreated controls (flask or cuvette)” value (BMS cell culture; pairwise T-tests, 8 replicates) was “significantly more cells of higher genome content”. The “Average Phragmoplasts (Normalized)” value [1] was 1.0*, the “survival rate after chromosome doubling with colchicine” value [2] was “less than 100%” and the “fertility after chromosome doubling with colchicine” value ([2]; usually) was “less than 50%”. For the same compound, the “Loss of viability compared to EMF treated cells” value ([3]; 1.25 mM colchicine vs 250 and 275 kHz EMF) was “higher loss of viability”, the “Average Viability (Normalized)” value ([3]; 1.25 mM colchicine, n=3) was 101% and the “Viability (Normalized to Control)” value ([3]; 1.25 mM colchicine, normalized to no treatment control) was 112.4% and 94.1% and 95.4%. The “Dead Cells (Per 3 vertical columns)” value [3, 5] was 87 and 112 and 120, the “Live Cells (Per 3 vertical columns)” value [3, 5] was 732 and 740 and 766 and the “Viability (% Live)” value [3, 5] was 89.4% and 86.9% and 86.5%.
